Test results reported in ChEMBL document CHEMBL3430912, “GSK Tres Cantos Anti-Kinetoplastid Screening (TCAKS) Data”.
pIC50: −log10 of the molar value.

What was measured:
Trypanosoma cruzi [1] = assay: GSK_TCAKS: pIC50 Trypanosoma cruzi viability assay using beta-GAL activity. This assay was run at single shot at 5uM compound concentration per well. The biological reagents consisted of NIH-3T3 host cells and trypomastigotes parasitic cells; both cell types were set to a 3.3 * 10^5 cells/mL dilution in assay DMEM by means of a CASY cell counter device using a 60um capillary. 6 uL of the mixture were dispensed per well (about 1 * 10^3 host-cells and 1 * 10^3 parasites) with a Multidrop Combi dispenser. […] In all wells, the percentage of DMSO never exceeded 0.5%. Plates incubated for four days at 37C, 5% CO2. The substrate used for the assay fluorescence intensity (FLINT) readout was resorufin-beta-D-galactopiranoside (Sigma-Aldrich) at 5uM per well. It was diluted in PBS supplemented with the soft detergent Igepal (Fluka).; format: functional, organism-based, Mus musculus; settings: Tulahuen, NIH3T3
Trypanosoma cruzi [2] = assay: (§1) GSK_TCAKS: pIC50 Trypanosoma cruzi Imaging: Infected Cells. […] Cells were then washed once with PBS before infection. T. cruzi trypomastigotes, collected at days 5 to 8 after infection from LLC-MK2 parasite infected cultures, were allowed to swim out for 4h at 37C from a centrifuged pellet (2,500 rpm/10 min/room temperature). Trypomastigotes were then collected and counted in a CASY Cell Counter. Trypomastigotes, in supplemented DMEM, were added to H9c2 cultures in a multiplicity of infection of 1 and incubated for 18 h. Cells were washed once with PBS before incubation of the infected H9c2 monolayer with trypsin (Life-Technologies) to detach cells from the flask. Cells were counted in a CASY Cell Counter using a 150 um capillary and their density set at 5 * 10^4 cells per mL in supplemented assay DMEM. Infected H9c2 were dispensed into 384-well poly-lysine coated assay plates at 50uL per well using a Multidrop Combi dispenser. After seeding them, the plates were incubated at 37C, 5% CO2 for 72h. Cultures were then fixed and stained by addition of 50 uL of a solution containing 8% formaldehyde and 4 uM DRAQ5 DNA dye (BioStatus, UK) per well. […] Five images were collected per well for reliable statistical analysis. Automated image analysis was performed with a script developed on Acapella High Content Imaging and Analysis Software (PerkinElmer). Output: percentage of infected cells per well as a second infection marker.; format: functional, organism-based, Rattus norvegicus; settings: H9c2, 4 h
Trypanosoma cruzi [3] = assay: GSK_TCAKS: pIC50 Trypanosoma cruzi Imaging: Amastigotes/Cell. […] Cells were then washed once with PBS before infection. T. cruzi trypomastigotes, collected at days 5 to 8 after infection from LLC-MK2 parasite infected cultures, were allowed to swim out for 4h at 37C from a centrifuged pellet (2,500 rpm/10 min/room temperature). Trypomastigotes were then collected and counted in a CASY Cell Counter. Trypomastigotes, in supplemented DMEM, were added to H9c2 cultures in a multiplicity of infection of 1 and incubated for 18 h. Cells were washed once with PBS before incubation of the infected H9c2 monolayer with trypsin (Life-Technologies) to detach cells from the flask. Cells were counted in a CASY Cell Counter using a 150 um capillary and their density set at 5 * 10^4 cells per mL in supplemented assay DMEM. Infected H9c2 were dispensed into 384-well poly-lysine coated assay plates at 50uL per well using a Multidrop Combi dispenser. After seeding them, the plates were incubated at 37C, 5% CO2 for 72h. Cultures were then fixed and stained by addition of 50 uL of a solution containing 8% formaldehyde and 4 uM DRAQ5 DNA dye (BioStatus, UK) per well. […] Five images were collected per well for reliable statistical analysis. Automated image analysis was performed with a script developed on Acapella High Content Imaging and Analysis Software (PerkinElmer). Output: number of amastigotes per cell as infection level measurement.; format: functional, organism-based, Rattus norvegicus; settings: H9c2, 4 h
Trypanosoma cruzi [4] = assay: as §1, with “H2C9” for “Trypanosoma cruzi”, “H9c2 Host Cardiomyocytes.” for “Infected Cells.”, “Number” for “percentage”, “H9c2 Host Cardiomyocytes nuclei to determine drug-related cytotoxicity.” for “infected cells per well as a second infection marker.”; format: functional, organism-based, Rattus norvegicus; settings: H9c2, 4 h
Leishmania donovani [5] = assay: GSK_TCAKS: pIC50 Leishmania donovani viability assay using fluorescence intensity. Assay plates (1536-well) were prepared by adding 30nL per well of compound. For single shot assay, the final compound concentration was 5uM. […] Briefly, eGFP LdBOB axenic amastigotes were harvested, fixed and counted in a CASY cell counter (Roche-Applied Science). A final concentration of 1.5 * 10^5 cells per well were prepared in amastigote media containing 500 U/mL penicillin/streptomycin (Invitrogen) and 6uL was dispensed to each experimental well using a Multidrop Combi dispenser (Thermo Scientific). 6uL of assay media was dispensed to control columns used as reference for 100% compound response. Following incubation for 72 h at 37C, 5% CO2, 2 uL of resazurin was added to each well at a final concentration of 0.5 mM in phosphate buffered saline (PBS) with IGEPAL (Sigma-Aldrich), 0.05% (v/v).; format: functional, organism-based
Leishmania donovani [6] = assay: GSK_TCAKS: pIC50 Leishmania donovani Imaging: Infected Macrophages. Assay plates (384-well) were prepared by adding 250nL of compound to each well. For single shot assay, the final compound concentration was 5 uM. […] Automated image analysis was performed with a script developed on Acapella High Content Imaging and Analysis Software (PerkinElmer). Output: Percent of infected macrophage cells were reported for each well.; format: functional, organism-based, Homo sapiens; settings: THP-1
Leishmania donovani [7] = assay: GSK_TCAKS: pIC50 Leishmania donovani Imaging: Amastigotes/Macrophages. Assay plates (384-well) were prepared by adding 250nL of compound to each well. For single shot assay, the final compound concentration was 5 uM. […] Automated image analysis was performed with a script developed on Acapella High Content Imaging and Analysis Software (PerkinElmer). Output: Average number of amastigotes per macrophage cell were reported for each well.; format: functional, organism-based, Homo sapiens; settings: THP-1
Leishmania donovani [8] = assay: GSK_TCAKS: pIC50 Leishmania donovani Imaging: THP-1 Host Macrophages. Assay plates (384-well) were prepared by adding 250nL of compound to each well. For single shot assay, the final compound concentration was 5 uM. […] Automated image analysis was performed with a script developed on Acapella High Content Imaging and Analysis Software (PerkinElmer). Output: THP-1 cell count were reported for each well.; format: functional, organism-based, Homo sapiens
[9] = tested on: Trypanosoma brucei brucei; assay: GSK_TCAKS: pIC50 Trypanosoma brucei viability assay using fluorescence intensity. Assay plates (1536-well) were prepared by dispensing 25nL of compound solution per well using an Echo acoustic dispenser (Labcyte).; format: functional, organism-based; settings: Lister 427, 2 h
[10] = tested on: Trypanosoma brucei brucei; assay: GSK_TCAKS: pIC50 Trypanosoma brucei viability assay using luminiscence. Assay plates (1536-well) were prepared. T. brucei cultures were harvested and counted in a CASY cell counter. A parasite suspension was prepared at a final concentration of 5 * 10^4 cells/mL in complete HMI9 medium and 6uL was dispensed to all wells containing compounds using a Multidrop Combi dispenser. 6uL of HMI9 media with 0.4% DMSO were dispensed to control columns. Plates were incubated for 24 h at 37C, 5% CO2 then tempered for 10 min at room temperature. ATP content was quantified by adding 4 uL of CellTiter-Glo Reagent (Promega) according to the manufacturer's instructions. Luminescence was measured using a ViewLux.; format: functional, organism-based; settings: Lister 427, CASY
[11] = GSK_TCAKS: pIC50 HepG2 human cell line viability assay using luminiscence. […] Seeding density was checked to ensure that new mono-layers were not more than 50% confluent at the time of harvesting. Cell suspension was added to 500 mL of the same medium at a final density of 1.2 * 10^5 cells/mL. This cell suspension was dispensed (25 uL, 3000 cells per well) into 384-well clear-bottom plates using a Multidrop Combi dispenser. Prior to addition of the cell suspension, the screening compounds (250 nL) were pre-dispensed into the plates with an Echo liquid handler. Plates were incubated for 48 h at 37C, 5% CO2. After incubation, plates equilibrated at room temperature for 30 min before proceeding to develop the luminescent signal. The signal developer, CellTiter-Glo Reagent, was allowed to equilibrate at room temperature for 30 min and added to the plates (25uL per well) using a Multidrop Combi dispenser. Plates were left for 10 min at room temperature for stabilization and then read using a ViewLux.; format: toxicity, cell-based
[12] = target: Sterol 14-alpha demethylase (Trypanosoma cruzi (strain CL Brener), UniProt Q7Z1V1); assay: GSK_TCAKS: pIC50 CYP51 from Trypanosoma cruzi.; format: functional
Sequence of Sterol 14-alpha demethylase (Q7Z1V1 whole entry): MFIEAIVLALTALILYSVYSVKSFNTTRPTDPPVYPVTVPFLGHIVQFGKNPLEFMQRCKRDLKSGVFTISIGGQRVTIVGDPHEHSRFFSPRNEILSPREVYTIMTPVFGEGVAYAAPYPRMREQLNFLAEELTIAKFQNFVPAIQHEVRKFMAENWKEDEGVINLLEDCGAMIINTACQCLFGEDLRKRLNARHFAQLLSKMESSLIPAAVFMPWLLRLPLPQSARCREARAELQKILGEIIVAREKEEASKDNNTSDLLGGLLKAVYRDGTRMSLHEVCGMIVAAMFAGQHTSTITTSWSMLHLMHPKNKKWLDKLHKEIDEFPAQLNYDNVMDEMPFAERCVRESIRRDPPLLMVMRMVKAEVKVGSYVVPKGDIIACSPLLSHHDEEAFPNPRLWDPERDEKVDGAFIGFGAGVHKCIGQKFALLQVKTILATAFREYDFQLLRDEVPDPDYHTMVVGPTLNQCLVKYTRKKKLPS

| Structure (SMILES) | pIC50 (Trypanosoma cruzi [1]) | pIC50 (Trypanosoma cruzi [2]) | pIC50 (Trypanosoma cruzi [3]) | pIC50 (Trypanosoma cruzi [4]) | pIC50 (Leishmania donovani [5]) | pIC50 (Leishmania donovani [6]) | pIC50 (Leishmania donovani [7]) | pIC50 (Leishmania donovani [8]) | pIC50 [9] | pIC50 [10] | IC50 at 48 h [11] [µM] | pIC50 [12] |
| --- | --- | --- | --- | --- | --- | --- | --- | --- | --- | --- | --- | --- |
| Cc1cc2nc(N3CC[C@H]3C(N)=O)nc(Nc3cc(C4CC4)[nH]n3)c2s1 | 5.20 | 5.10 | 5.40 | 6.30 | 6.10 | 5.70 | 5.90 | 6.10 | 7.10 | 6.90 | > 100 | < 4.00 |
| Cc1ccc(NC(=O)c2ccnc(N3CCCC3)c2)cc1-c1cc(C(N)=O)ccc1C | 5.20 | 5.00 | 5.50 | < 4.30 | 4.60 | 4.40 | 4.60 | 4.50 | 7.00 | 6.60 | > 100 | 5.40 |
| Cc1cnc(Nc2cc(Cc3ccccc3)nc(N[C@H]3CC[C@H](O)CC3)n2)s1 | 6.90 | 6.90 | 7.30 | 7.50 | 6.10 | 7.40 | 7.50 | 7.60 | 7.60 | 7.40 | 25.1 | < 4.00 |
| O=C(Nc1ccc(S(=O)(=O)N2CCCC2)cc1)c1ccc([N+](=O)[O-])s1 | 6.70 | 6.70 | 6.70 | 5.80 | 5.10 | 5.80 | 6.00 | < 4.30 | 6.80 | 6.70 | 6.31 | < 4.00 |
| COc1cccc(Nc2cc(C)nc(-c3ccccn3)n2)c1 | 5.50 | 4.90 | 5.10 | 5.30 | 5.40 | 5.70 | 5.90 | < 4.30 | < 4.40 | < 4.40 | 50.1 | < 4.00 |
| CCOc1ccc2nc(NC(=O)c3ccc([N+](=O)[O-])s3)sc2c1 | 5.75 | 5.90 | 6.00 | 5.00 | 5.60 | 5.20 | 5.30 | < 4.30 | 5.90 | 5.60 | 31.6 | < 4.00 |
| CCc1ccc2nc(NC(=O)c3cc(N4CCOCC4)ccn3)sc2c1 | 5.60 | 6.10 | 6.30 | 4.40 | 5.70 | 5.90 | 6.10 | 5.00 | 6.30 | 6.00 | > 100 | < 4.00 |
| Nc1nc(-c2ccccn2)nc(-n2nc(-c3ccccc3)cc2N)n1 | 6.30 | 5.60 | 6.50 | 5.70 | 5.70 | 6.10 | 6.10 | 5.00 | 6.00 | 5.50 | 10 | < 4.00 |
| O=C(CN1CCN(c2ccccn2)CC1)Nc1cc(S(=O)(=O)N2CCCCCC2)ccc1Cl | 5.00 | 5.10 | 5.20 | < 4.30 | 5.10 | 5.20 | 5.90 | 4.30 | 4.90 | 4.60 | > 100 | 5.50 |
| Cc1ccccc1CNC(=O)CN(Cc1ccccn1)Cc1ccccn1 | 5.30 | 4.80 | 5.20 | < 4.10 | 5.00 | 5.20 | 5.40 | < 4.10 | 5.20 | 4.70 | > 158 | 4.00 |
| C[C@@H](Oc1cc(-n2cnc3ccc(O[C@H]4CCNC4)cc32)sc1C(N)=O)c1ccccc1Cl | 5.50 | 4.90 | 5.20 | 6.20 | < 4.30 | 5.10 | 5.30 | 5.20 | 6.60 | 6.10 | 15.8 | 5.90 |
